This note sets out measurements from ChEMBL document CHEMBL3797199, “Anti-gout nor-oleanane triterpenoids from the leaves of Stauntonia brachyanthera” (Bioorg Med Chem Lett, 2016).

The target of this test is Xanthine dehydrogenase/oxidase (Bos taurus, UniProt P80457). Briefly: Inhibition of bovine milk xanthine oxidase using xanthine as substrate preincubated for 15 mins followed by substrate addition by spectrophotometric method.
Sequence of Xanthine dehydrogenase/oxidase (P80457 whole entry): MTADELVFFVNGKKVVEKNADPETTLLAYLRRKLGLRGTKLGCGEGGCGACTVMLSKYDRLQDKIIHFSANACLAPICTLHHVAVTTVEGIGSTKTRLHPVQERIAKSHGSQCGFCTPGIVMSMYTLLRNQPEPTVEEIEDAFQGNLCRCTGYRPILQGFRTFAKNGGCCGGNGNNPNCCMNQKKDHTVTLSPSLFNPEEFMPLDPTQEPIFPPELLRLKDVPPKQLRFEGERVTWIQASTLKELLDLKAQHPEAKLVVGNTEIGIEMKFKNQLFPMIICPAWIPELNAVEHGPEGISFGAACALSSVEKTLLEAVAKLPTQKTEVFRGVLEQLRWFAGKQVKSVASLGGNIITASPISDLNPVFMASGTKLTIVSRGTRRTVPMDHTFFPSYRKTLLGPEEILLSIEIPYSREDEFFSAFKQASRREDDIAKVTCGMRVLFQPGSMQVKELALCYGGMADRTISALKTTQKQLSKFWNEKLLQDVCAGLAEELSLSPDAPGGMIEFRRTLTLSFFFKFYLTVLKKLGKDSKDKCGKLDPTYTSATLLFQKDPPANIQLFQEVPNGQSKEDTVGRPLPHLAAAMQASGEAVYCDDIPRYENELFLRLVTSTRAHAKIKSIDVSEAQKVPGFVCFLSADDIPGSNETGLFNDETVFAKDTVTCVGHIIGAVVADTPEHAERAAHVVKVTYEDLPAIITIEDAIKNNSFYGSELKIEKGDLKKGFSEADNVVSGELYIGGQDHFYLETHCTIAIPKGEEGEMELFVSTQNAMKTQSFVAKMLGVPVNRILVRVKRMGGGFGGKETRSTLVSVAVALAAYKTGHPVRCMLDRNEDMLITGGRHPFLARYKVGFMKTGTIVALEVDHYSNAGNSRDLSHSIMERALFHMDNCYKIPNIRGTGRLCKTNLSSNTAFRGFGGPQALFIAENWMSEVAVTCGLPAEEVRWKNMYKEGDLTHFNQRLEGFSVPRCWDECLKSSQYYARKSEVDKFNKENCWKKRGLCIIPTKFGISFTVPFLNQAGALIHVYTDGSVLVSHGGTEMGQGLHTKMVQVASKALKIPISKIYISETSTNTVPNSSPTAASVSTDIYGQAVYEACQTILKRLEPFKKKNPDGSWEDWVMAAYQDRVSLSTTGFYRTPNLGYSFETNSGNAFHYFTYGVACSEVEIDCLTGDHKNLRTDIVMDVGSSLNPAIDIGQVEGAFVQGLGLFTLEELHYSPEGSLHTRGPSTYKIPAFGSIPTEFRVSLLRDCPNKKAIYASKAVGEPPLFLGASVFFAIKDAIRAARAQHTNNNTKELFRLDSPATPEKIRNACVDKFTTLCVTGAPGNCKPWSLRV

Molecule `C[C@]12CC[C@H](O)[C@](C)(CO[C@@H]3O[C@H](CO)[C@@H](O)[C@H](O)[C@H]3O)[C@@H]1CC[C@]1(C)[C@@H]2CC=C2[C@@H]3C[C@](C)(C(=O)O)[C@@H](O)C[C@]3(C(=O)O)CC[C@]21C` displayed a half-inhibitory concentration (IC50) of 49.2 µM.
`C=C1CC[C@]2(C(=O)O)CC[C@]3(C)C(=CC[C@@H]4[C@@]5(C)CC[C@H](O[C@@H]6OC[C@H](O)[C@H](O)[C@H]6O[C@@H]6O[C@@H](C)[C@H](O)[C@@H](O)[C@H]6O)C(C)(C)[C@@H]5CC[C@]43C)[C@@H]2C1` yielded an IC50 of 18.5 µM.
The result for `C=C1CC[C@]2(C(=O)O[C@@H]3O[C@H](CO[C@@H]4O[C@H](CO)[C@@H](O)[C@H](O)[C@H]4O)[C@@H](O)[C@H](O)[C@H]3O)CC[C@]3(C)C(=CC[C@@H]4[C@@]5(C)CC[C@H](O[C@@H]6OC[C@H](O)[C@H](O)[C@H]6O)[C@@](C)(CO)[C@@H]5CC[C@]43C)[C@@H]2C1` reads 79.6 µM.
The result for `C[C@]12C[C@@H](O)[C@H](O)[C@](C)(CO)[C@@H]1CC[C@]1(C)[C@@H]2CC=C2[C@@H]3C[C@](C)(C(=O)O)[C@@H](O)C[C@]3(C(=O)O)CC[C@]21C` reads greater than 100 µM.
Molecule `C=C1CC[C@]2(C(=O)O[C@@H]3O[C@H](CO[C@@H]4O[C@H](CO)[C@@H](O[C@@H]5O[C@@H](C)[C@H](O)[C@@H](O)[C@H]5O)[C@H](O)[C@H]4O)[C@@H](O)[C@H](O)[C@H]3O)CC[C@]3(C)C(=CC[C@@H]4[C@@]5(C)CC[C@H](O[C@@H]6OC[C@H](O)[C@H](O[C@@H]7O[C@H](C(=O)O)[C@@H](O)[C@H](O)[C@H]7O)[C@H]6O)[C@@](C)(CO)[C@@H]5CC[C@]43C)[C@@H]2C1` yielded a concentration for half-maximal inhibition (IC50) of 91.3 µM.
The result for `C=C1CC[C@]2(C(=O)O[C@@H]3O[C@H](CO[C@@H]4O[C@H](CO)[C@@H](O)[C@H](O)[C@H]4O)[C@@H](O)[C@H](O)[C@H]3O)CC[C@]3(C)C(=CC[C@@H]4[C@@]5(C)CC[C@H](O[C@@H]6OC[C@H](O)[C@H](O[C@@H]7OC[C@H](O)[C@H](O)[C@H]7O)[C@H]6O)C(C)(C)[C@@H]5CC[C@]43C)[C@@H]2C1` reads greater than 100 µM.
The result for `C=C1CC[C@@]2(C(=O)O[C@@H]3O[C@H](CO[C@@H]4O[C@H](CO)[C@@H](O)[C@H](O)[C@H]4O)[C@@H](O)[C@H](O)[C@H]3O)CC[C@@]3(C)C(=CC[C@H]4[C@]5(C)CC[C@@H](O[C@@H]6OC[C@H](O)[C@H](O)[C@H]6O[C@@H]6OC[C@H](O)[C@H](O[C@H]7OC[C@@H](O)[C@@H](O)[C@@H]7O)[C@H]6O)C(C)(C)[C@H]5CC[C@@]43C)[C@H]2C1` reads greater than 100 µM; that for `C[C@@H]1O[C@@H](O[C@@H]2[C@@H](O[C@H]3CC[C@]4(C)[C@H]5CC=C6[C@@H]7C[C@H](CO)CC[C@]7(C(=O)O[C@H]7O[C@@H](CO[C@@H]8O[C@H](CO)[C@@H](O[C@@H]9O[C@@H](C)[C@H](O)[C@@H](O)[C@H]9O)[C@H](O)[C@H]8O)[C@H](O)[C@@H](O)[C@@H]7O)CC[C@@]6(C)[C@]5(C)CC[C@H]4C3(C)C)OC[C@@H](O)[C@H]2O)[C@H](O)[C@H](O)[C@H]1O`, greater than 100 µM; that for `C=C1CC[C@]2(C(=O)O[C@H]3O[C@@H](CO[C@@H]4O[C@H](CO)[C@@H](O[C@@H]5O[C@@H](C)[C@H](O)[C@@H](O)[C@H]5O)[C@H](O)[C@H]4O)[C@H](O)[C@@H](O)[C@@H]3O)CC[C@]3(C)C(=CC[C@@H]4[C@@]5(C)CC[C@H](O[C@H]6OC[C@@H](O)[C@@H](O[C@H]7OC[C@@H](O)[C@@H](O)[C@@H]7O[C@@H]7OC[C@@H](O)[C@H](O[C@H]8OC[C@@H](O)[C@@H](O)[C@@H]8O)[C@H]7O)[C@@H]6O)C(C)(C)[C@@H]5CC[C@]43C)[C@@H]2C1`, greater than 100 µM.
On to `C[C@H]1O[C@@H](O[C@H]2[C@H](OC[C@]3(C)[C@@H]4CC[C@]5(C)[C@H](CC=C6[C@@H]7C[C@](C)(O)[C@@H](O)C[C@]7(C(=O)O)CC[C@]65C)[C@@]4(C)CC[C@@H]3O)O[C@H](CO)[C@@H](O)[C@@H]2O)[C@H](O)[C@@H](O)[C@@H]1O`, for which the IC50 was 0.2 µM. That is a sub-micromolar value.
The result for `C=C1CC[C@]2(C(=O)O[C@H]3O[C@@H](CO[C@H]4O[C@@H](CO)[C@H](O)[C@@H](O)[C@@H]4O)[C@H](O)[C@@H](O)[C@@H]3O)CC[C@]3(C)C(=CC[C@@H]4[C@@]5(C)CC[C@H](O[C@H]6OC[C@@H](O)[C@@H](O)[C@@H]6O[C@@H]6O[C@@H](C)[C@H](O)[C@@H](O[C@H]7OC[C@@H](O)[C@@H](O)[C@@H]7O)[C@H]6O)C(C)(C)[C@@H]5CC[C@]43C)[C@@H]2C1` reads greater than 100 µM.

As a reminder, the IC50 is the concentration needed to halve the response being measured. A high value points to a need for much substance.
